Source: patent US11214803B2, “Modulators of YAP1 expression” (Ionis Pharmaceuticals, Inc., priority 2019, dated 2022)
Strand notation (5' to 3'): a small letter for the sugar, then the base; units joined by * are phosphorothioate-linked, units joined directly phosphodiester-linked; [ ] holds rarer units or linkages, { } end groups; capitals alone tell only the bases. k = constrained ethyl (cEt); [5mC] = 5-methylcytosine; d = 2'-deoxy (DNA)

The substances below were run on Yap1 mRNA (assay: Antisense inhibition of human Yap1 in A-431 cells by cEt gapmers, single dose (Example 2, RTS4814)). Conditions: A-431 cells, 5,000 cells per well, free uptake, 2,000 nM modified oligonucleotide, approx. 48 hours, RTS4814, normalized to RIBOGREEN; Table 4; asterisk (*) = targets amplicon region of primer probe set.
Type: cell-based
Method in brief: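 A-431 cells (5,000/well) took up 2,000 nM 3-10-3 cEt gapmer by free uptake for ~48 h. Yap1 mRNA was quantified by qRT-PCR with primer probe set RTS4814, normalized to RIBOGREEN total RNA, and reported as % of untreated control.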

Compared with “716406 (kA*k[5mC]*kT*d[5mC]*dT*d[5mC]*dA*dT*d[5mC]*dT*d[5mC]*dG*dA*kG*kA*kG; antisense) [Compound 716406]”, “716400 (kT*kA*kA*d[5mC]*dT*d[5mC]*d[5mC]*dT*dG*dA*d[5mC]*dA*dT*kT*kT*kT; antisense) [Compound 716400]” is lower in “YAP1 (% UTC)” value: 117 % UTC for the first, 106 % UTC for the second.

Going from “716472 (kG*kT*k[5mC]*dA*dT*dG*d[5mC]*dA*d[5mC]*dA*dT*dT*dA*kT*kG*kA; antisense) [Compound 716472]” to “716514 (antisense kG*k[5mC]*kT*dG*dA*dT*dA*dT*dA*dT*dA*dA*dG*kA*kT*kA) [Compound 716514]”, the “YAP1 (% UTC)” value falls from 78 % UTC to 68 % UTC.

Same assay, conditions: Table 5; A-431 cells, 5,000 cells per well, free uptake, 2,000 nM modified oligonucleotide, approx. 48 hours; RTS4814; normalized to RIBOGREEN; Yap1 mRNA relative to untreated control cells

First: 716560 (kT*kA*kA*d[5mC]*dA*dA*dT*dT*dT*dA*dT*dG*dT*kA*kA*kG; antisense) [Compound 716560]
Second: 716482 (k[5mC]*kT*kA*dT*d[5mC]*d[5mC]*dA*dG*dG*dG*dT*d[5mC]*dA*kA*kT*kT; antisense) [Compound 716482]
The “YAP1 (% UTC)” value of the first is higher: 107 % UTC for the first, 83 % UTC for the second.

Same assay, conditions: Table 6; A-431 cells, 5,000 cells per well, free uptake, 2,000 nM modified oligonucleotide, approx. 48 hours; RTS4814; normalized to RIBOGREEN; Yap1 mRNA relative to untreated control cells

Going from “716435 (kA*k[5mC]*kA*dA*d[5mC]*dT*dG*dT*dT*dG*dA*dA*d[5mC]*kA*kA*kA; antisense) [Compound 716435]” to “716375 (kG*kA*kG*dA*d[5mC]*dT*dA*d[5mC]*dT*d[5mC]*d[5mC]*dA*dG*kT*kG*kG; antisense) [Compound 716375]”, the “YAP1 (% UTC)” value rises from 45 % UTC to 63 % UTC.

Same assay, conditions: Table 18; A-431 cells, 5,000 cells per well, free uptake, 2,000 nM modified oligonucleotide, approx. 48 hours; RTS4814; normalized to RIBOGREEN; Yap1 mRNA as percent of untreated control

In the case of “1075748 (kG*kT*kA*dA*dA*dT*d[5mC]*dA*dA*dG*dT*dT*dG*k[5mC]*kA*kT; antisense) [Compound 1075748]”, the “YAP1 (% UTC)” value is reported as 7 % UTC.

Same assay, conditions: Table 19; A-431 cells, 5,000 cells per well, free uptake, 2,000 nM modified oligonucleotide, approx. 48 hours; RTS4814; normalized to RIBOGREEN; Yap1 mRNA as percent of untreated control

First: 1074309 (antisense k[5mC]*k[5mC]*kG*d[5mC]*dA*dT*dT*dG*d[5mC]*d[5mC]*dT*dG*dT*kG*kG*k[5mC]) [Compound 1074309]
Second: 1074405 (antisense kG*k[5mC]*k[5mC]*dT*dG*dA*dA*dA*dA*d[5mC]*dT*dG*d[5mC]*kA*kA*k[5mC]) [Compound 1074405]
The “YAP1 (% UTC)” value of the first is higher: 80 % UTC for the first, 27 % UTC for the second.

Same assay, conditions: Table 20; Yap1 mRNA, percent of untreated control; 3-10-3 cEt gapmers targeting SEQ ID NO.: 1 and 2

Compared with “1076038 (kA*kG*kG*d[5mC]*dA*dA*dG*dA*dA*dT*dT*dG*dG*kG*kT*kA; antisense) [Compound 1076038]”, “1074598 (antisense k[5mC]*kT*kT*dA*dT*dA*dG*dT*dA*dT*dT*d[5mC]*dT*kA*kT*k[5mC]) [Compound 1074598]” is higher in “YAP1 (% UTC)” value: 11 % UTC for the first, 46 % UTC for the second.

Going from “1075782 (kT*kA*kT*dT*dA*dG*dG*dT*dT*dT*d[5mC]*d[5mC]*d[5mC]*kG*kT*kT; antisense) [Compound 1075782]” to “1076102 (k[5mC]*kT*kT*dA*dA*d[5mC]*dA*dA*dA*dT*d[5mC]*dA*dG*k[5mC]*k[5mC]*k[5mC]; antisense) [Compound 1076102]”, the “YAP1 (% UTC)” value rises from 10 % UTC to 32 % UTC.

Compared with “1074246 (antisense kA*kA*kG*dA*dA*dG*dT*dA*dT*d[5mC]*dT*d[5mC]*dT*kG*kA*k[5mC]) [Compound 1074246]”, “1076454 (kT*kA*kA*dA*d[5mC]*dT*dA*dA*dT*d[5mC]*d[5mC]*d[5mC]*dA*kT*kA*kT; antisense) [Compound 1076454]” is higher in “YAP1 (% UTC)” value: 11 % UTC for the first, 35 % UTC for the second.

With “1074822 (kT*kA*kG*dA*dA*dA*dA*dG*dT*dG*dT*dT*dA*kA*kG*k[5mC]; antisense) [Compound 1074822]” the “YAP1 (% UTC)” value was 25 % UTC.

Same assay, conditions: Table 21; Yap1 mRNA, percent of untreated control; 3-10-3 cEt gapmers targeting SEQ ID NO.: 1 and 2

Going from “1075399 (antisense k[5mC]*kA*kT*dA*dT*dA*dT*dA*dT*dG*dG*d[5mC]*d[5mC]*k[5mC]*kT*kT) [Compound 1075399]” to “1075687 (kT*kA*kA*dA*d[5mC]*dG*dA*dG*dT*dA*dA*dT*dG*kA*k[5mC]*kT; antisense) [Compound 1075687]”, the “YAP1 (% UTC)” value rises from 15 % UTC to 23 % UTC.

Compared with “1074119 (antisense kG*k[5mC]*kA*d[5mC]*dT*d[5mC]*dG*dG*dA*d[5mC]*d[5mC]*dT*dG*k[5mC]*kG*kG) [Compound 1074119]”, “1075335 (k[5mC]*kT*kT*dA*dA*dT*dA*dA*dT*d[5mC]*dT*dA*d[5mC]*k[5mC]*kA*kG; antisense) [Compound 1075335]” is lower in “YAP1 (% UTC)” value: 71 % UTC for the first, 30 % UTC for the second.

First: 1074759 (k[5mC]*kA*kA*d[5mC]*d[5mC]*dA*dA*dG*dA*dA*dG*d[5mC]*dA*kG*kT*kT; antisense) [Compound 1074759]
Second: 1076551 (antisense kG*kT*kG*dG*dA*dA*dT*dA*dG*d[5mC]*dA*dG*d[5mC]*k[5mC]*kA*kT) [Compound 1076551]
The “YAP1 (% UTC)” value of the first is lower: 43 % UTC for the first, 67 % UTC for the second.

Same assay, conditions: Table 22; Yap1 mRNA as percent of untreated control; 3-10-3 cEt gapmers; single dose

First: 1075336 (kG*k[5mC]*kT*dT*dA*dA*dT*dA*dA*dT*d[5mC]*dT*dA*k[5mC]*k[5mC]*kA; antisense) [Compound 1075336]
Second: 1076232 (kG*kT*kA*dA*dT*dA*d[5mC]*dA*d[5mC]*d[5mC]*dA*dT*dT*kT*kG*kG; antisense) [Compound 1076232]
The “YAP1 (% UTC)” value of the first is higher: 32 % UTC for the first, 15 % UTC for the second.

Going from “1075048 (antisense kG*kT*kA*dA*dA*dA*dT*dT*dA*dG*dA*d[5mC]*dT*k[5mC]*k[5mC]*k[5mC]) [Compound 1075048]” to “1076424 (kA*k[5mC]*kT*dT*dA*dA*d[5mC]*d[5mC]*dT*dG*dA*d[5mC]*dA*kG*k[5mC]*kT; antisense) [Compound 1076424]”, the “YAP1 (% UTC)” value rises from 4 % UTC to 76 % UTC.

Same assay, conditions: Table 23; Yap1 mRNA as percent of untreated control; 3-10-3 cEt gapmers; single dose

First: 1074121 (antisense kT*kG*k[5mC]*dG*dA*dG*dG*d[5mC]*dA*d[5mC]*dT*d[5mC]*dG*kG*kA*k[5mC]) [Compound 1074121]
Second: 1074537 (antisense k[5mC]*kA*kG*dT*dA*dA*dT*dA*dG*d[5mC]*dT*d[5mC]*dT*kT*kT*k[5mC]) [Compound 1074537]
The “YAP1 (% UTC)” value of the first is higher: 87 % UTC for the first, 3 % UTC for the second.

First: 1076265 (kT*kA*kT*dT*dA*d[5mC]*d[5mC]*d[5mC]*dA*dA*dT*dA*dA*k[5mC]*k[5mC]*kA; antisense) [Compound 1076265]
Second: 1075241 (antisense kG*kA*kT*dA*dA*dT*dT*dA*d[5mC]*dT*dA*dA*d[5mC]*kT*kG*kA) [Compound 1075241]
The “YAP1 (% UTC)” value of the first is lower: 9 % UTC for the first, 31 % UTC for the second.

For “1076553 (antisense kT*kG*kG*dG*dA*dA*dT*dA*dA*dT*dT*dT*dG*kG*k[5mC]*k[5mC]) [Compound 1076553]”, the “YAP1 (% UTC)” value was 69 % UTC.

Same assay, conditions: Table 24; Yap1 mRNA as percent of untreated control; 3-10-3 cEt gapmers targeting SEQ ID NO.: 1, and 2

First: 1076266 (kA*kT*kT*dA*dT*dT*dA*d[5mC]*d[5mC]*d[5mC]*dA*dA*dT*kA*kA*k[5mC]; antisense) [Compound 1076266]
Second: 1074634 (antisense kG*k[5mC]*kT*dG*dA*dG*dG*d[5mC]*dT*dT*dT*dT*d[5mC]*kA*kT*kA) [Compound 1074634]
The “YAP1 (% UTC)” value of the first is higher: 72 % UTC for the first, 55 % UTC for the second.

Compared with “1075114 (antisense kG*kT*kA*dT*dA*dA*dA*dT*dA*d[5mC]*d[5mC]*dA*dG*kG*kT*kA) [Compound 1075114]”, “1075594 (kT*kG*kA*dG*dA*dA*dT*dA*dT*dT*d[5mC]*d[5mC]*dT*k[5mC]*k[5mC]*k[5mC]; antisense) [Compound 1075594]” is higher in “YAP1 (% UTC)” value: 26 % UTC for the first, 64 % UTC for the second.

Same assay, conditions: Table 25; Yap1 mRNA as percent of untreated control; 3-10-3 cEt gapmers targeting SEQ ID NO.: 1, and 2

Going from “1075819 (kG*kT*kA*dT*dA*dT*d[5mC]*d[5mC]*dG*dT*dT*d[5mC]*dT*k[5mC]*kA*kT; antisense) [Compound 1075819]” to “1074667 (antisense k[5mC]*k[5mC]*k[5mC]*dA*dA*d[5mC]*dA*dA*d[5mC]*dA*dT*dG*d[5mC]*kT*kA*kT) [Compound 1074667]”, the “YAP1 (% UTC)” value rises from 2 % UTC to 15 % UTC.

Same assay, conditions: Table 32; Yap1 mRNA, percent of untreated control; 3-10-3 cEt gapmers targeting SEQ ID NO.: 1, and 2

First: 1074706 (antisense kT*kT*kA*dA*dT*dG*dG*d[5mC]*dA*dG*d[5mC]*dA*d[5mC]*kG*kG*kT) [compound 1074706]
Second: 1075282 (antisense kG*kA*kA*dA*dA*dA*dT*dG*dA*dG*d[5mC]*d[5mC]*d[5mC]*kG*kG*kT) [compound 1075282]
The “YAP1 (% UTC)” value of the first is lower: 48 % UTC for the first, 103 % UTC for the second.

Same assay, conditions: Table 33; Yap1 mRNA, percent of untreated control; 3-10-3 cEt gapmers targeting SEQ ID NO.: 1, and 2

Going from “1074131 (kG*kG*k[5mC]*d[5mC]*d[5mC]*d[5mC]*dG*d[5mC]*dA*dT*d[5mC]*d[5mC]*d[5mC]*k[5mC]*k[5mC]*kG; antisense) [compound 1074131]” to “1074931 (antisense kG*kA*kG*dA*d[5mC]*dT*dA*dT*dA*d[5mC]*dA*dA*d[5mC]*kA*kG*kG) [compound 1074931]”, the “YAP1 (% UTC)” value falls from 72 % UTC to 35 % UTC.

Same assay, conditions: Yap1 mRNA as percent of untreated control; A-431 cells; 3-10-3 cEt gapmers targeting SEQ ID NO.: 1, and 2; Table 31

Compared with “1075057 (antisense k[5mC]*k[5mC]*kT*dT*dA*dG*dG*dA*dG*dT*dA*dG*dA*k[5mC]*kT*kG) [compound 1075057]”, “1075953 (kA*kA*k[5mC]*d[5mC]*dT*dA*dT*dA*dT*dA*d[5mC]*d[5mC]*dT*kG*k[5mC]*kT; antisense) [compound 1075953]” is higher in “YAP1 (% UTC)” value: 14 % UTC for the first, 36 % UTC for the second.
